Experimental data published in PMC7823652 (Viruses, 2020).
Where two headings read alike, the source gives them in different places.

Assays:
ZIKV [1] = assay: Time course of ZIKV replication in U87 cells (vRNA, infected cells, titer)
ZIKV [2] = assay: End-point dilution assay by CPE, ZIKV-infected Vero cells; assay type: cell-based, Zika virus (strain H/PF/2013); settings: ZIKV MOI 0.1, increasing doses, 24 h
[3] = Cell viability assay (Resazurin), uninfected U87 cells; assay type: cell-based, Human; settings: human, read-out: Viability CC50 [µM] (95%-CI)
U87 cells [4] = assay: as above; assay type: cell-based, Human; settings: Homo sapiens, U-87 MG; U87, Resazurin, all measured time points (24, 48 or 72 h); read-out: IC50 (toxicity profile, cellular viability)
HAZV = assay: microbe, parasite or virus in culture; assay type: cell-based, Hazara virus (isolate JC280); settings: for inhibition at 10 µM: Hazara virus, SW13, 24 h
human brain organoids = assay: Viability and structure of ZIKV-infected human cerebral organoids; settings: ZIKV 2 × 10^4 particles/organoid, 5 μM, 7 dpi and 10 dpi
ZIKV [5] = assay: ZIKV-induced cytopathic effect in U87 cells (immunofluorescence imaging); assay type: cell-based, Zika virus (strain H/PF/2013); settings: U87, ZIKV MOI 1, 10 μM TH6744, 24, 48 or 72 h
ZIKV [6] = assay: Viral budding assay in ZIKV-infected U87 cells; assay type: cell-based, Zika virus (strain H/PF/2013)
[7] = Screen cytotoxicity by nuclei count in ZIKV-infected U87 cells; assay type: cell-based; settings: human, ZIKV-infected U87 cells
Vero cells = assay: Cell viability by nuclei count in ZIKV-infected Vero cells; assay type: cell-based, African Green Monkey
in vitro = assay type: cell-based; settings: African green monkey
ZIKV [8] = assay: Image-based phenotypic antiviral screen in ZIKV-infected U87 cells; assay type: cell-based, Zika virus (strain H/PF/2013); settings: for inhibition at 10 µM: Zika virus, U-87 MG
ZIKV [9] = assay: Antiviral dose-response in ZIKV-infected Vero cells; assay type: cell-based, Zika virus (strain H/PF/2013); settings: Zika virus
ZIKV [10] = assay: Time-of-addition assay in ZIKV-infected U87 cells; assay type: cell-based, Zika virus (strain H/PF/2013)
ZIKV [11] = assay: ZIKV infection (NS1 intensity) and viral titer in human cerebral organoids; assay type: cell-based, Zika virus (strain H/PF/2013); settings: ZIKV 2 × 10^4 particles/organoid, 5 μM
U87 cells [12] = assay: Cell viability by nuclei count in ZIKV-infected U87 cells; assay type: cell-based, Human
ZIKV [13] = assay: Antiviral dose-response in ZIKV-infected U87 cells (infected cells, viral titer); assay type: cell-based, Zika virus (strain H/PF/2013); settings: Zika virus, U-87 MG; for IC50: ZIKV; for EC50: U87, ZIKV MOI 1, 48 h
[14] = U87, ZIKV MOI 10, 22 h then 5 μM for 2 h
[15] = U87, ZIKV MOI 10, 22 h then 10 μM for 2 h

For `CCOC(=O)c1cnn(-c2cccc3c2[nH]c(=O)n3C2CCN(C(=O)Nc3ccc(I)cc3)CC2)c1` [TH6744], the ZIKV-infected cells (ZIKV [1]; U87, ZIKV MOI 1, 24 hpi) was “no reduction”, the “reduction of extracellular vRNA levels” value (ZIKV [1]; U87, ZIKV MOI 1, 24 hpi) was 50% and the “reduction of viral titers” value (ZIKV [1]; U87, ZIKV MOI 1, 24 hpi) was 75%. For the same compound, the “intracellular ZIKV vRNA” value (ZIKV [1]; U87, ZIKV MOI 1, 24 hpi, qPCR) was “no reduction”, the “intracellular ZIKV vRNA levels” value (ZIKV [1]; U87, ZIKV MOI 1, 48 hpi) was “remained unchanged” and the “reduction of number of ZIKV-infected cells” value (ZIKV [1]; U87, ZIKV MOI 1, 48 hpi) was 65%. The reduction of titer (ZIKV [1]; U87, ZIKV MOI 1, 48 hpi) was 83%, the “decrease of number of ZIKV-infected cells” value (ZIKV [1]; U87, ZIKV MOI 1, 72 h exposure) was 40% and the “decrease of viral titer” value (ZIKV [1]; U87, ZIKV MOI 1, 72 h exposure) was 63%. The “viral titer measured by CPEs” value (ZIKV [2]) was “reduced viral titer in a dose-dependent manner”, the CC50 at 24 h ([3]; uninfected U87, 24 h) was over 50 µM and the CC50 at 48 h ([3]; uninfected U87, 48 h) was over 50 µM. For the same compound, the CC50 at 72 h ([3]; uninfected U87, 72 h) was over 50 µM, the IC50 (U87 cells [4]) was over 50 µM and the inhibition at 10 µM (HAZV; read-out: Inhibition of HAZV titer (%)) was 90%. For the same compound, the inhibition at 10 µM (HAZV; read-out: Inhibition of primary HAZV infection (%)) was 85%, the “Infected Cells (SW13, HAZV)” value (HAZV; screen, SW13 cells, HAZV) was 15% and the “Viral Titer (HAZV)” value (HAZV; screen, SW13 cells, HAZV) was 10%. For the same compound, the “phenotypic rescue (retained structure of organoids)” value (human brain organoids) was “phenotypic rescue”, the “effect on ZIKV-induced CPE in U87 cells” value (ZIKV [5]) was “reversed ZIKV-induced CPE” and the “infectivity of pre-budding and post-budding particles” value (ZIKV [6]; U87, ZIKV MOI 10, 2 h TH6744 treatment (5 or 10 μM), dose-dependent) was “reduced to a similar extent”. For the same compound, the “Fraction of infectious ZIKV particles: Extracellular” value (ZIKV [6]; [14]) was 94.30%, the “Fraction of infectious ZIKV particles: Intracellular” value (ZIKV [6]; [14]) was 5.70% and the “Fraction of infectious ZIKV particles: Extracellular” value (ZIKV [6]; [15]) was 93.44%. The “Fraction of infectious ZIKV particles: Intracellular” value (ZIKV [6]; [15]) was 6.56%, the viability at 48 h, 10 µM ([7]; ZIKV MOI 10, compound 10 µM, 48 h, nuclei count relative to DMSO) was 105% and the viability at 10 µM ([7]; screen) was 105%. It also gave an EC50 (Vero cells; Chlorocebus sabaeus, MOI 10, 24 h) of over 50 µM, an EC50 (Vero cells; Chlorocebus sabaeus, MOI 10, 48 h) of over 50 µM and an EC50 (Vero cells; MOI 1, 24 h) of over 50 µM. For the same compound, the EC50 (Vero cells; MOI 1, 48 h) was over 50 µM, the CC50 at 24 h (in vitro) was over 50 µM and the CC50 at 48 h (in vitro) was over 50 µM. The CC50 at 72 h (in vitro) was over 50 µM, the “Viral Titer (ZIKV) (%)” value (ZIKV [8]; U87, ZIKV MOI 10, compound 10 µM, 48 h, relative to DMSO) was 5% and the “Infected Cells (U87, ZIKV) (%)” value (ZIKV [8]; ZIKV MOI 10, compound 10 µM, 48 h, relative to DMSO) was 88%. The inhibition at 10 µM (ZIKV [8]; U87, ZIKV MOI 10, compound 10 µM, 48 h, relative to DMSO, read-out: Inhibition of ZIKV titer (%)) was 95%, the inhibition at 10 µM (ZIKV [8]; U87, ZIKV MOI 10, compound 10 µM, 48 h, relative to DMSO, read-out: Inhibition of primary ZIKV infection (%)) was 12% and the “Infected Cells (U87, ZIKV)” value (ZIKV [8]; screen, U87 cells, ZIKV) was 88%. The “Viral Titer (ZIKV)” value (ZIKV [8]; screen, U87 cells, ZIKV) was 5%, the IC50 (ZIKV [9]; 24 h, MOI 1, 24 h, read-out: Antiviral on primary infection IC50) was 48.4 µM and the IC50 (ZIKV [9]; 24 h, MOI 1, 24 h, read-out: Antiviral on titer (µM) IC50) was 3.9 µM. For the same compound, the IC50 (ZIKV [9]; 24 h, MOI 10, 24 h, read-out: Antiviral on primary infection IC50) was over 50 µM, the IC50 (ZIKV [9]; 24 h, MOI 10, 24 h, read-out: Antiviral on titer (µM) IC50) was 5.5 µM and the IC50 (ZIKV [9]; 48 h, MOI 1, 48 h, read-out: Antiviral on primary infection IC50) was 2.9 µM. For the same compound, the IC50 (ZIKV [9]; 48 h, MOI 1, 48 h, read-out: Antiviral on titer (µM) IC50) was 3.6 µM, the IC50 (ZIKV [9]; 48 h, MOI 10, 48 h, read-out: Antiviral on primary infection IC50) was 5.8 µM and the IC50 (ZIKV [9]; 48 h, MOI 10, 48 h, read-out: Antiviral on titer (µM) IC50) was 7.2 µM. For the same compound, the “reduction on viral titer, entry” value (ZIKV [10]; U87, ZIKV MOI 10, 10 μM TH6744, 1 h pre-treatment and during inoculation, titer at 24 hpi) was 50%, the “viral titer, post-inoculation” value (ZIKV [10]; U87, ZIKV MOI 10, 10 μM TH6744 directly after inoculation for 24 h) was “pronounced reduction of viral titer” and the “titer reduction, virus budding” value (ZIKV [10]; U87, ZIKV MOI 10, 10 μM TH6744 from 22 h after inoculation for 2 h) was 50%. For the same compound, the “ZIKV NS1 intensity in sectioned organoids (primary virus infection)” value (ZIKV [11]; 7 dpi) was “marked reduction”, the “reduction of ZIKV progeny particles produced by the organoids” value (ZIKV [11]; all timepoints, relative to DMSO) was 70–80% and the EC50 (U87 cells [12]; Homo sapiens, U-87 MG, U87, ZIKV MOI 1, 48 h, nuclei count, read-out: EC50 [μM] Living cells) was over 50 µM. The EC50 (U87 cells [12]; Homo sapiens, U-87 MG, ZIKV, U87, MOI 10, 24 h, read-out: Viability (nuclei count) EC50) was over 50 µM, the EC50 (U87 cells [12]; Homo sapiens, U-87 MG, ZIKV, U87, MOI 10, 48 h, read-out: Viability (nuclei count) EC50) was over 50 µM and the “viability (nuclei count)” value (U87 cells [12]; U87, ZIKV MOI 1, 24 hpi) was “without affecting the viability”. The EC50 (U87 cells [12]; ZIKV, U87, MOI 1, 24 h, read-out: Viability (nuclei count) EC50) was over 50 µM, the EC50 (U87 cells [12]; ZIKV, U87, MOI 1, 48 h, read-out: Viability (nuclei count) EC50) was over 50 µM and the IC50 (ZIKV [13]; 24 h, U87, MOI 1, 24 h, read-out: Antiviral on primary infection IC50) was over 50 µM. It also gave an IC50 (ZIKV [13]; 24 h, U87, MOI 1, 24 h, read-out: Antiviral on titer (µM) IC50) of over 50 µM, an IC50 (ZIKV [13]; 24 h, U87, MOI 10, 24 h, read-out: Antiviral on primary infection IC50) of over 50 µM and an IC50 (ZIKV [13]; 24 h, U87, MOI 10, 24 h, read-out: Antiviral on titer (µM) IC50) of 10.3 µM. It also gave an IC50 (ZIKV [13]; 48 h, U87, MOI 1, 48 h, read-out: Antiviral on primary infection IC50) of 7.5 µM, an IC50 (ZIKV [13]; 48 h, U87, MOI 1, 48 h, read-out: Antiviral on titer (µM) IC50) of 4.4 µM and an IC50 (ZIKV [13]; 48 h, U87, MOI 10, 48 h, read-out: Antiviral on primary infection IC50) of 12.2 µM. It also gave an IC50 (ZIKV [13]; 48 h, U87, MOI 10, 48 h, read-out: Antiviral on titer (µM) IC50) of 9.2 µM, an EC50 (ZIKV [13]; ZIKV NS1 staining, read-out: EC50 [μM] Infected cells) of 7.5 µM and an EC50 (ZIKV [13]; end-point dilution assay, read-out: EC50 [μM] Viral titer) of 4.4 µM.
